From paper PMC10610379, “Epidrugs as Promising Tools to Eliminate Plasmodium falciparum Artemisinin-Resistant and Quiescent Parasites” (Pharmaceutics, 2023)
“And” between values parts separate entries of the source, which are not always exact repeats. Equal values may be shown once. Read-outs that look alike come from different tables or passages of the source.

Key:
NFF = details: cited from earlier work
[1] = system: Plasmodium falciparum F32-TEM (artemisinin-sensitive twin line); assay: Standard chemosensitivity assay (SYBR Green I), F32-TEM; type: cell-based; details: Plasmodium falciparum, read-out: Antiplasmodial Activity: IC50, F32-TEM
Method: (§1) They differ by eight mutations in seven genes (PF3D7_0110400, PF3D7_1343700, PF3D7_0213400, PF3D7_1115700, PF3D7_1302100, PF3D7_1459600, PF3D7_1464500) among them the M476I mutation on the kelch13 gene. F32-ART and F32-TEM strains have RSA^0–3 h values up to 12% and less than 0.1%, respectively. […] Both strains were cultured, in the same conditions, according to the Trager and Jensen protocol with modifications. Briefly, parasites were cultivated in RPMI-1640 medium (Biowest) at 2% hematocrit in human red blood cells and 5% human serum (EFS, French Blood Bank) under 5% CO2 in a humid atmosphere at 37 °C.
(§2) The antimalarial activities of the compounds were evaluated on both strains. […] Antimalarial activities were determined with the SYBR Green I method. Each drug concentration was tested in triplicate. The parasites were incubated with the drugs for 48 h. Plates were read on a BioTek FLX800 Microplate Fluorescence Reader (Bio-Tek instruments, Winooski, VT, USA) (λexcitation = 485 nm, λemission = 528 nm). Control parasite culture (i.e., RPMI with 0.5% DMSO) was referred to as 100% growth. IC50 and IC90 values were determined using GraphPad Prism version 7.05 (GraphPad Software, San Diego, CA, USA). Results were the mean of 3 independent experiments. When it is relevant, statistical significance between results obtained with both parasite strains was determined by a Mann–Whitney test using GraphPad Prism version 7.05.

[2] = system: Plasmodium falciparum F32-ART (artemisinin-resistant strain); assay: Standard chemosensitivity assay (SYBR Green I), F32-ART; type: cell-based; details: for IC50: Plasmodium falciparum, read-out: Antiplasmodial Activity: IC50, F32-ART; for Selectivity Index CC50/IC50: ratio cytotoxicity (mammalian cell type of the CC50)/antiplasmodial activity on F32-ART
Method: as §1, §2

[3] = system: ART-resistant parasites F32-ART at the quiescent stage; assay: Quiescent-stage Survival Assay (QSA), 48-h exposure; type: cell-based, Plasmodium falciparum
Method: The sensitivity of the ART-resistant parasites F32-ART at the quiescent stage towards the different molecules was determined using the QSA (Quiescent-stage Survival Assay), as previously described.
Epidrugs were tested at their IC90 values. In the present study, quiescence was induced using 3 µM of ART or 700 nM of DHA [28]. Thus, D-sorbitol synchronized ring-stage parasites at 3% parasitemia and 2% hematocrit (5 mL of culture per well in 6-well plates) were first exposed to 6 h of ART or DHA to induce quiescence and then to 48 h of the combination “ART or DHA + compound to be tested”. The combinations “ART 6 h/ART 48 h” or “DHA 6 h/DHA 48 h” were used as controls. The compounds were evaluated, in parallel, on proliferating parasites, i.e., without any pre-treatment. After drug exposure, parasite cultures were washed with 40 mL of RPMI-1640 medium and cultured in drug-free conditions supplemented with 10% human serum in new wells. The parasitemia for each condition was then microscopically monitored every 2 days. Culture media were renewed twice a week and 25 µL of fresh red blood cells were added once a week. Obtained data were used to perform Kaplan–Meier survival analyses considering censored data. The outcome was defined as the day when parasite cultures reached the initial parasitemia (3%) and data were considered as censored if no parasite recrudescence was observed during the 30-day experiment timeframe. When relevant, statistical significance between results obtained for the conditions “ART/ART” and “ART/ART + compound to be tested” or “DHA/DHA” and “DHA/DHA + compound to be tested” was determined by a Log Rank (Mantel Cox) test using GraphPad Prism version 7.05. For the best compounds targeting histones, in order to compare western blots data, modified QSAs were carried out by comparing “DHA 6 h/DHA 24 h” versus “DHA 6 h/DHA + compound to be tested 24 h”.

H4K20me3 = assay: Immunoblotting, histone mark abundance in F32-ART parasites; type: cell-based, Plasmodium falciparum; details: 90nM
Method: (§3) Abundance of methylated and acetylated histone was determined in parasite cultures in different conditions: “not-treated”, “DHA 24 h”, “DHA 6 h/DHA 24 h” and “DHA 6 h/DHA + compound to be tested 24 h”. At the end of the treatments, parasite cultures were washed in RPMI-1640 and then twice in PBS 1× before red blood cell lysis with 0.075% saponin (Sigma-Aldrich) in PBS. Parasite ghosts were washed 3 times in PBS before incubating the ghosts with E1A lysis buffer (50 mM Hepes pH 7.5; 250 mM NaCl; 5 mM EDTA; 0.1% Triton X-100, 1 mM DTT, 0.2 mM PMSF supplemented with complete Mini EDTA-free protease inhibitor cocktail (Roche®, Basel, Switzerland)) for 15 min. Ghosts were then sonicated for 3 × 15s ON/OFF cycles to shear parasite membranes. Debris were pelleted by centrifuging for 15 min at 13,800× g and 4 °C, and supernatants (containing parasitic proteins) were then collected. Protein concentrations were determined using BCA assay (Bio-Rad, Hercules, CA, USA) according to the manufacturer’s instructions. For each sample, 10 µg of proteins were mixed with 4× sample buffer (10 mL 50% Glycerol, 5 mL 0.5 M Tris HCl pH 6.8, 4 mL 20% SDS, 0.02% Bromophenol blue for a total solution volume of 20 mL) and 100 mM DTT and then separated on 15% SDS-PAGE gels in Laemmli running buffer. Gels were then wet-transferred O/N at 20 V onto PVDF membranes. Membranes were blocked in TBST for 1 h at room temperature. Bottom parts were then probed with histone antibodies while upper parts were probed with PFALDOLASE antibody (Abcam, ab38905, Cambridge, UK) at 1:20,000 dilution. The following primary antibodies were used: anti-H3K4me1 (Abcam, ab8895); anti-H3K4me2 (Abcam, ab35356); anti-H3K9me2 (Abcam, ab1220); anti-H3K9me3 (Millipore, 07-442, Burlington, MA, USA); anti-tetra-acetyl H4 (Millipore, 06-866); anti-H4K8Ac (Millipore, 07-328); anti-H4K20me3 (Abcam, ab9053); anti-H3K4me3 (Diagenode) and anti-H3K9Ac (Millipore, 07-352) at 1:10,000. The following secondary antibodies were used: anti-rabbit IgG-Peroxidase produced in goat (Sigma-Aldrich) or anti-mouse IgG-Peroxidase (Sigma-Aldrich); at 1:20,000 dilutions. Blots were developed using ECL Prime Western Blotting (GE Healthcare, Chicago, IL, USA) and read on a Chemidoc touch imaging software. Densitometry analysis was performed by using ImageLab software from Bio-Rad. To determine if variations in histone abundances were statistically significant, immunoblotting experiments were performed on 3 biological replicates and each run was performed twice.

H3K4me2 = assay: as above; type: cell-based, Plasmodium falciparum; details: 90nM
Method: as §3

H3K4me1 = assay: as above; type: cell-based, Plasmodium falciparum; details: 90nM
Method: as §3

H3K4me3 = assay: as above; type: cell-based, Plasmodium falciparum; details: 90nM
Method: as §3

HFF = details: read-out: Cytotoxicity: CC50 (HFF), data from literature ref 48; cited from earlier work
[4] = 24 h, F32-ART ring stage proliferating, 3 replicates (Fig 3B)
[5] = DHA 6 h/DHA + BIX-01294 24 h, F32-ART DHA-treated parasites, 3 replicates (Fig 3F)

Structure (SMILES) | CC50 (NFF; read-out: Cytotoxicity: CC50 (NFF), data from literature ref 43) [nM] | IC50 ([1]; F32-TEM, 48 h incubation, SYBR Green I, mean ± SEM of 3 experiments (* mean of 2)) [nM] | IC50 ([2]; F32-ART, 48 h incubation, SYBR Green I, mean ± SEM of 3 experiments (* mean of 2)) [nM] | Selectivity Index CC50/IC50 [2] | CC50 (NFF; read-out: Cytotoxicity: CC50 (NFF), data from literature ref 40) [nM] | Delay in parasite recrudescence time (difference between median recrudescence times), ART/ART + compound vs ART/ART ([3]; quiescence induced with ART 3 µM 6 h, then 48 h ART + compound at its IC90) [days] | Delay in recrudescence time, DHA/DHA + compound vs DHA/DHA ([3]; quiescence induced with DHA 700 nM 6 h, then 48 h DHA + compound at its IC90) | Fold change of H4K20me3 abundance, BIX-01294 vs DMSO (H4K20me3; [4]) | Fold change of H4K20me3 abundance, BIX-01294, quiescent stage (H4K20me3; [5]) | Fold change of H3K4me2 abundance, BIX-01294 vs DMSO (H3K4me2; [4]) | Fold change of H3K4me2 abundance, BIX-01294, quiescent stage (H3K4me2; [5]) | Fold change of H3K4me1 abundance, BIX-01294 vs DMSO (H3K4me1; [4]) | Fold change of H3K4me1 abundance, BIX-01294, quiescent stage (H3K4me1; [5]) | Fold change of H3K4me3 abundance, BIX-01294 vs DMSO (H3K4me3; [4]) | Fold change of H3K4me3 abundance, BIX-01294, quiescent stage (H3K4me3; [5]) | IC50 ([1]; F32, 48 h) [nM] | CC50 (HFF) [nM] | IC50 ([2]; F32, 48 h) [nM]
O=C(CCCCCCC(=O)Nc1ccccc1)NO [SAHA] | 5500 |  |  |  |  |  |  |  |  |  |  |  |  |  |  |  |  | 
CC(/C=C/C(=O)NO)=C\[C@@H](C)C(=O)c1ccc(N(C)C)cc1 [Trichostatin A] |  | 30 ± 3 | 29 ± 12 | 7 | 200 |  |  |  |  |  |  |  |  |  |  |  |  | 
COc1cc2nc(N3CCCN(C)CC3)nc(NC3CCN(Cc4ccccc4)CC3)c2cc1OC [BIX-01294] |  |  |  | 110 |  | 8.5 | slightly shorter delay | significantly decreased level and 0.69 and 0.64 and 0.72 | did not induce a quantifiable change and 0.66 and 1.37 and 0.84 | significantly decreased level and 0.66 and 0.68 and 0.73 | did not induce a quantifiable change and 1.57 and 0.88 and 0.79 | significantly decreased level and 0.58 and 0.68 and 0.70 | did not induce a quantifiable change and 1.47 and 1.13 and 0.70 | significantly decreased level and 0.89 and 0.88 and 0.80 | did not induce a quantifiable change and 1.11 and 1.28 and 0.96 | 55 ± 14 | 6100 | 56 ± 8
